{
  "source": "patent US20260207600A1",
  "about": "“METHODS OF TREATMENT WITH MYOSIN MODULATOR” (MYOKARDIA, INC., priority 2019, published 2026)",
  "key": {"[1]": {"tested_on": "conscious fully-instrumented dogs with normal cardiac function", "experiment": "Acute β-AR (dobutamine) challenge after mavacamten in conscious instrumented dogs", "assay_type": "in vivo, dog", "description": "In addition, the effects of MAVA (at 1.5 mg/kg PO, via gavage) on cardiac reserve were evaluated via acute β-AR challenges (dobutamime: 2, 5, and 10 ug/kg/min IV) in conscious fully-instrumented (LVPV group) dogs with normal cardiac function (n=8). These challenges were performed before/after dosing (+3-hour) in control- and MAVA-treated animals both under normal cardiac physiological conditions (n=4) and under (mild) concomitant cardio-depression induced via either selective β-AR blockade (+BB, metoprolol 0.5±0.1 mg/kg PO tid; n=4) or L-type Ca2+-channel blockade (+CCB, verapamil at 5±1 mg/kg PO tid; n=4); pharmacological blockades were established for 7 days prior to the MAVA treatment. Both peak and dose-responses were evaluated at steady state.\nThroughout these experiments, analog signals were digitally acquired (1000 Hz) and recorded continuously with a data acquisition/analysis system (IOX; EMKA Technologies). Heart rate (HR), end-systolic (ESP) and end-diastolic pressures (EDP), as well as the peak rates of pressure rise/decline (dP/dtmax and dP/dtmin), the contractility index (CI: dP/dt/P at dP/dtmax), and the time-constant of myocardial relaxation (tau½, time for 50% decay from dP/dtmin) were derived from the LV pressure signal. Meanwhile, the end-systolic (ESV) and end-diastolic volumes (EDV) were measured from the LV volume signal derived from the implanted myocardial crystals. LV volumes were derived assuming a Teichholz model, and stroke volume (SV=EDV−ESV), ejection fraction (EF=SV/EDV), as well as cardiac output (CO=SV·HR) were calculated; in a subset of animals, SV and CO values were verified from data derived from the implanted aortic flow proble. […] The slopes of the preload-recruitable stroke work (PRSW; stroke work vs. EDV) and the end-systolic pressure-volume relationships (ESPVR; end-systolic elastance, Ees) were derived by software using linear models (IOX; EMKA Technologies), and were used as load-independent inotropic indices. Ventricular load was estimated by the effective arterial elastance (Ea=ESP/SV). […]"}, "CYP2C19": {"biological_target": "CYP2C19 (Homo sapiens, UniProt P33261)", "sequence (P33261 whole entry)": "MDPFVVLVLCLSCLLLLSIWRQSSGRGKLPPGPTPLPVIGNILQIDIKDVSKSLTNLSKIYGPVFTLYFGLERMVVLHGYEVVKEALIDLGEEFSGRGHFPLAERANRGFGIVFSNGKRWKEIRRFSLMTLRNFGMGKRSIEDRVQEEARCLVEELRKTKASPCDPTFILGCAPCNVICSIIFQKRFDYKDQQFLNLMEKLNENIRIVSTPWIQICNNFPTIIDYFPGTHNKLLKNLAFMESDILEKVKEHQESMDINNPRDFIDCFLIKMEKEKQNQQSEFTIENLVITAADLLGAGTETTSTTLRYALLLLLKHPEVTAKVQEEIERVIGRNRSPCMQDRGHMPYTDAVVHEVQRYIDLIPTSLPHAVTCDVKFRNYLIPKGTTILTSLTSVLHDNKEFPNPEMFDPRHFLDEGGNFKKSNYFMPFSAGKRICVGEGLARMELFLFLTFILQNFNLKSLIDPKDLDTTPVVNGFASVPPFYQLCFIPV", "experiment": "In vitro contribution of CYP enzymes to mavacamten metabolism", "assay_type": "in vitro ADME"}, "[2]": {"experiment": "Solubility estimates at ambient temperature", "assay_type": "physicochemical", "settings": "thermodynamic from solid, Form A (Lot 2-4), read-out: Solubility (estimate)", "description": "Solubilities were calculated based on the total solvent used to give a solution; actual solubilities may be greater because of the volume of solvent portions utilized or a slow rate of dissolution. […] If dissolution occurred at the first aliquot, the value was reported as “>”.\nSolubility estimates at ambient temperature were performed in 25 solvents and solvent systems using Form A (Lot 2-4) (Table 13.3)."}},
  "note": "Where two headings read alike, the source gives them in different places.",
  "data": [
    {"smiles": "CC(C)n1c(=O)cc(N[C@@H](C)c2ccccc2)[nH]c1=O", "note": "[mavacamten, (S)-3-Isopropyl-6-((1-phenylethyl)amino)pyrimidine-2, 4(1H,3H)-dione]", "values": [
      {"measurement": "β-AR induced acceleration of tau", "setting": "[1]; at any given dP/dtmax gain", "value": "enhanced the β-AR induced acceleration of tau"},
      {"measurement": "dobutamine-triggered stroke-volume/cardiac output recruitments", "setting": "[1]; before (control) vs under acute mavacamten treatment", "value": "comparable stroke-volume/cardiac output recruitments"},
      {"measurement": "β-AR elevations in dP/dtmax and CI", "setting": "[1]; dobutamine challenge", "value": "blunted β-AR elevations in dP/dtmax and CI"},
      {"measurement": "percent contribution to the metabolism of mavacamten", "setting": "CYP2C19", "value": 74, "unit": "%"},
      {"measurement": "solubility", "setting": "[2]; aqueous with cosolvent or surfactant or cyclodextrin, DMSO:water (50:50)", "value": "< 1", "unit": "mg/mL"},
      {"measurement": "solubility", "setting": "[2]; aqueous with cosolvent or surfactant or cyclodextrin, MeOH:water (50:50)", "value": "< 1", "unit": "mg/mL"},
      {"measurement": "solubility", "setting": "[2]; organic solvent or mixture, Anisole", "value": "< 1", "unit": "mg/mL"},
      {"measurement": "solubility", "setting": "[2]; organic solvent or mixture, DMF:CHCl3 (90:10)", "value": "~27", "unit": "mg/mL"},
      {"measurement": "solubility", "setting": "[2]; organic solvent or mixture, DMF:EtOAc (80:20)", "value": "~27", "unit": "mg/mL"},
      {"measurement": "solubility", "setting": "[2]; organic solvent or mixture, DMF:EtOH (75:25)", "value": "~28", "unit": "mg/mL"},
      {"measurement": "solubility", "setting": "[2]; organic solvent or mixture, DMF:anisole (90:10)", "value": "~28", "unit": "mg/mL"},
      {"measurement": "solubility", "setting": "[2]; organic solvent or mixture, DMF:iPrOH (80:20)", "value": "~43", "unit": "mg/mL"},
      {"measurement": "solubility", "setting": "[2]; organic solvent or mixture, DMF:toluene (90:10)", "value": "~42", "unit": "mg/mL"},
      {"measurement": "solubility", "setting": "[2]; organic solvent or mixture, DMSO:p-dioxane (80:20)", "value": "> 42", "unit": "mg/mL"},
      {"measurement": "solubility", "setting": "[2]; organic solvent or mixture, DMSO:water (90:10)", "value": "~5", "unit": "mg/mL"},
      {"measurement": "solubility", "setting": "[2]; organic solvent or mixture, HFIPA", "value": "> 60", "unit": "mg/mL"},
      {"measurement": "solubility", "setting": "[2]; organic solvent or mixture, HFIPA:water (90:10)", "value": "~28", "unit": "mg/mL"},
      {"measurement": "solubility", "setting": "[2]; organic solvent or mixture, MIBK", "value": "< 1", "unit": "mg/mL"},
      {"measurement": "solubility", "setting": "[2]; organic solvent or mixture, MeOH", "value": "~2", "unit": "mg/mL"},
      {"measurement": "solubility", "setting": "[2]; organic solvent or mixture, MeOH:water (90:10)", "value": "< 1", "unit": "mg/mL"},
      {"measurement": "solubility", "setting": "[2]; organic solvent or mixture, NMP:EtOAc (80:20)", "value": "~45", "unit": "mg/mL"},
      {"measurement": "solubility", "setting": "[2]; organic solvent or mixture, NMP:MeOH (75:25)", "value": "~38", "unit": "mg/mL"},
      {"measurement": "solubility", "setting": "[2]; organic solvent or mixture, NMP:toluene (80:20)", "value": "~27", "unit": "mg/mL"},
      {"measurement": "solubility", "setting": "[2]; organic solvent or mixture, NMP:water (90:10)", "value": "~23", "unit": "mg/mL"},
      {"measurement": "solubility", "setting": "[2]; organic solvent or mixture, THF", "value": "~2", "unit": "mg/mL"},
      {"measurement": "solubility", "setting": "[2]; organic solvent or mixture, THF:water (90:10)", "value": "~13", "unit": "mg/mL"},
      {"measurement": "solubility", "setting": "[2]; organic solvent or mixture, iPrOH", "value": "< 1", "unit": "mg/mL"},
      {"measurement": "solubility", "setting": "[2]; organic solvent or mixture, nitromethane", "value": "< 1", "unit": "mg/mL"},
      {"measurement": "solubility", "setting": "[2]; organic solvent or mixture, toluene", "value": "< 1", "unit": "mg/mL"}
    ]}
  ]
}
